Key:
PDGF = target: T1, PDGF (Mus musculus, UniProt P05622); assay: PDGF receptor tyrosine kinase inhibition (DELFIA); format: biochemical; settings: kinase domain at 20 nM
T1 construct: The kinase domains from FGFR-1, VEGFR-2, Lck, and PDGF were purified from baculoviral vectors expression systems; made in house; host or cells: baculovirus expression system (insect cells)
Description: (§1) Full-length cDNAs for the mouse PDGF-β and human FGF-1 (flg) receptor tyrosine kinases were obtained from J. Escobedo and prepared as described in J. Biol. Chem., 1991;262:1482-1487. PCR primers were designed to amplify a fragment of DNA that codes for the intracellular tyrosine kinase domain. The fragment was inserted into a baculovirus vector, cotransfected with AcMNPV DNA, and the recombinant virus isolated. SF9 insect cells were infected with the virus to overexpress the protein, and the cell lysate was used for the assay. […] Filters were washed three times with 15% TCA containing 100 mM sodium pyrophosphate, and the radioactivity retained on the filters counted in a Wallac 1250 Betaplate reader. Nonspecific activity was defined as radioactivity retained on the filters following incubation of samples with buffer alone (no enzyme). […]
(§2) The inhibition activity of the compounds in Examples 7 and 8 were also evaluated using the Dissociated Enhanced Lanthanide Fluoroimmuno Assay (DELFIA) (Frank Loganzo and Carolyn Harady. A sensitive, time-resolved fluorometric assay for the detection of inhibitors of phosphotyrosine kinases. American Biotechnology Laboratory, December 1998). […] One hundred microliter DELFIA Enhancement Solution (EG&G Wallac) was added and time-resolved fluorescence of the reactions determined using a VICTOR2 1420 multilable counter (EG&G Wallac). […]

c-Src = target: T2, c-Src (Homo sapiens, UniProt P12931); assay: c-Src kinase inhibition (DELFIA); format: biochemical; settings: c-Src at 3 units per reaction
T2 construct: purchased Upstate Biotechnology, Lake Placid, N.Y
T2 sequence (P12931 whole entry, species assumed): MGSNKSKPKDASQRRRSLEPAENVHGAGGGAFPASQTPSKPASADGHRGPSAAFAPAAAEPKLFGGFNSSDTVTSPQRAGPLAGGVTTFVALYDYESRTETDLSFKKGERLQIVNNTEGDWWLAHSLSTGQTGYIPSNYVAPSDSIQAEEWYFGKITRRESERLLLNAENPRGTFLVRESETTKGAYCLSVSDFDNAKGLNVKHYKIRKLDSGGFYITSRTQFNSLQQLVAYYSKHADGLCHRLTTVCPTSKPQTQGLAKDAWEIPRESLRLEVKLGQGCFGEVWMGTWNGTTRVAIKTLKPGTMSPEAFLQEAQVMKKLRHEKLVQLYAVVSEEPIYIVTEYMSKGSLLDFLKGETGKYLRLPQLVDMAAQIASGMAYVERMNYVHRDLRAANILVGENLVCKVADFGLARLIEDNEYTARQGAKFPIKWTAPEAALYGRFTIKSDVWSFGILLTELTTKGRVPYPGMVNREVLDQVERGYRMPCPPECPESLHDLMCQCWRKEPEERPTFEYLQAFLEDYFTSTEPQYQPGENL
Protocol: c-Src kinase is purified from baculovirus infected insect cell lysates using an antipeptide monoclonal antibody directed against the N-terminal amino acids (amino acids 2-17) of c-Src. The antibody, covalently linked to 0.65 μm latex beads, is added to a suspension of insect cell lysis buffer comprised of 150 mM NaCl, 50 mM Tris pH 7.5, 1 mM DTT, 1% NP-40, 2 mM EGTA, 1 mM sodium vanadate, 1 mM PMSF, 1 μg/mL each of leupeptin, pepstatin, and aprotinin. Insect cell lysate containing c-Src protein is incubated with these beads for 3 to 4 hours at 4° C. with rotation. […] The filters are then punched, counted in a liquid scintillation counter, and the data examined for inhibitory activity in comparison to a known inhibitor such as erbstatin. […]
as §2

FGFR-1 = target: T3, FGFR-1 (Homo sapiens, UniProt P11362); assay: FGFR tyrosine kinase inhibition (DELFIA); format: biochemical; settings: kinase domain at 20 nM
T3 construct: The kinase domains from FGFR-1, VEGFR-2, Lck, and PDGF were purified from baculoviral vectors expression systems; made in house; host or cells: baculovirus expression system (insect cells)
T3 sequence (P11362 478-767 limits assumed): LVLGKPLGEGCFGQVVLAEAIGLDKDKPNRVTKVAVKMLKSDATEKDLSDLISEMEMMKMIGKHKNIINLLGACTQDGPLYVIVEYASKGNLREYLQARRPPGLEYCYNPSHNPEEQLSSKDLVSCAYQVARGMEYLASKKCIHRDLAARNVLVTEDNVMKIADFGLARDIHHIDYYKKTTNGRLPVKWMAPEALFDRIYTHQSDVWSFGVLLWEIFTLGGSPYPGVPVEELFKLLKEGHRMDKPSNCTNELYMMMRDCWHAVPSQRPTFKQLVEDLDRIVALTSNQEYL
Description: as §1, §2

Lck = target: T4, Lck (Homo sapiens, UniProt P06239); assay: Lck kinase inhibition (DELFIA); format: biochemical; settings: kinase domain at 20 nM
T4 construct: The kinase domains from FGFR-1, VEGFR-2, Lck, and PDGF were purified from baculoviral vectors expression systems; made in house; host or cells: baculovirus expression system (insect cells)
T4 sequence (P06239 245-498 limits assumed, species assumed): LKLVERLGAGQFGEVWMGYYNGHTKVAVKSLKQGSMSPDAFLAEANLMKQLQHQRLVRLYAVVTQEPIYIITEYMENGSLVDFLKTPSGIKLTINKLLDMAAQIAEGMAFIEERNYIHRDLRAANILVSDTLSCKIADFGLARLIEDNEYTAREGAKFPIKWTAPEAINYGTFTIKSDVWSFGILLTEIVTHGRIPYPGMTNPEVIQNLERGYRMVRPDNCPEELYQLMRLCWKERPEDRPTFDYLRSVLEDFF
Protocol: (§3) The inhibition activity of the compounds in Examples 7 and 8 were also evaluated using the Dissociated Enhanced Lanthanide Fluoroimmuno Assay (DELFIA) (Frank Loganzo and Carolyn Harady. A sensitive, time-resolved fluorometric assay for the detection of inhibitors of phosphotyrosine kinases. American Biotechnology Laboratory, December 1998). DELFIA plates (EG&G Wallac, Gaithersburg, Md.) were coated overnight with Poly Glu Tyr (4:1) (Sigma, St. Louis, Mo.) overnight at room temperature, washed (DELFIA wash reagent, EG&G Wallac), and spotted with 1 μL inhibitor dilution or DMSO carrier control per well. In some cases, kinase was autophosphorylated prior to analysis by incubating 45 minutes at 4° C. in the presence of 4 mM ATP and 25 mM MgCl2. A typical 100 μL kinase assay reaction contained 20 mM Tris (pH 7.5), 20 mM MgCl2, 50 mM NaCl, 5 mM DTT, 200 μM ATP, and protease inhibitors (Mini EDTA-free protease inhibitor cocktail tablets, Boehringer Mannheim, Indianapolis, Ind.), 40 μM ATP, and an appropriate concentration of inhibitor. The reaction was allowed to continue for 30 minutes at room temperature. […] One hundred microliter DELFIA Enhancement Solution (EG&G Wallac) was added and time-resolved fluorescence of the reactions determined using a VICTOR2 1420 multilable counter (EG&G Wallac). […]

VEGFR-2 = target: T5, VEGFR-2 (Homo sapiens, UniProt P35968); assay: VEGFR-2 tyrosine kinase inhibition (DELFIA); format: biochemical; settings: kinase domain at 20 nM; read-out: (VEGF-2) (IC50 = μM)
T5 construct: The kinase domains from FGFR-1, VEGFR-2, Lck, and PDGF were purified from baculoviral vectors expression systems; made in house; host or cells: baculovirus expression system (insect cells)
T5 sequence (P35968 834-1162 limits assumed, species assumed): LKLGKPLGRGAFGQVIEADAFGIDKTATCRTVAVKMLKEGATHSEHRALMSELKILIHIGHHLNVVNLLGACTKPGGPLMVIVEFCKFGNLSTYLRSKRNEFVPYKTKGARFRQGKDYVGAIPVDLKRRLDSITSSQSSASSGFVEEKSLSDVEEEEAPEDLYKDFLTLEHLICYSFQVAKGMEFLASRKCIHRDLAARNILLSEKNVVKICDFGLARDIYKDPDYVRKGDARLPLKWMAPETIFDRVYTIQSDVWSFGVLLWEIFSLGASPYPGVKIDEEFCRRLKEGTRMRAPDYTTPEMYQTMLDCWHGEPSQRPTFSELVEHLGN
Protocol: as §3

T1 sequence (P05622 599-961 limits assumed): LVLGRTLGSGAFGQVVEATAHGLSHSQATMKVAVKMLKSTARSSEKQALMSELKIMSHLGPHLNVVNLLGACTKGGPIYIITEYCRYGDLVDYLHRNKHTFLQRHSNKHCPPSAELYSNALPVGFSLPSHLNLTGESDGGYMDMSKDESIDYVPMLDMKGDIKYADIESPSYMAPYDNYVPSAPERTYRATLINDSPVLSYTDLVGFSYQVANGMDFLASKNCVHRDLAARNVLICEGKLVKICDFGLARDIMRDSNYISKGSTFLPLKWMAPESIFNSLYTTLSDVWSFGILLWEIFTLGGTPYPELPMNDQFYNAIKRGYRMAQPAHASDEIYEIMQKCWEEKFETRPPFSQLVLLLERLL

SMILES	IC50 (PDGF) [µM]	melting point	IC50 (c-Src) [µM]	IC50 (FGFR-1) [µM]	Ki (Lck) [µM]	IC50 (VEGFR-2) [µM]
CCN(CC)CCCCNc1nnc2cc(-c3cc(OC)cc(OC)c3)c(=O)n(CC)c2n1 [Example 7, 3-(4-Diethylamino-butylamino)-7-(3,5-dimethoxy-phenyl)-5-ethyl-5H-pyrido[2,3-e]-1,2,4-triazin-6-one]	> 50	120 to 121 °C (dec.)	10.6	6.04		
CCn1c(=O)c(-c2cc(OC)cc(OC)c2)cc2nnc(Nc3ccncc3)nc21 [Example 8, 7-(3,5-Dimethoxy-phenyl)-5-ethyl-3-(pyridin-4-ylamino)-5H-pyrido[2,3-e]-1,2,4-triazin-6-one]	> 50		> 4	1.22	> 4	0.35

From US6683183B2, “Pyridotriazines and pyridopyridazines” (Warner-Lambert Company, priority 2000, dated 2004)
